Reference: patent US12668600B2 (Kumquat Biosciences Inc., priority 2023, dated 2026)

How the values were obtained:
Assay type in all cases: biochemical
KRAS G12S = molecular target: T1, KRAS G12S (Homo sapiens, UniProt P01116, G12S); assay: HTRF KRAS-SOS1 interaction assay, KRAS G12S; conditions: binned ≤2 μM / >2 μM, read-out: Inhibition of KRAS G12S (IC50)
T1 construct: made in house; host or cells: E. coli, e.g. BL21 (DE3)
Procedure, shortened: (§1)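 GST-tagged KRAS (WT or mutant) with anti-GST-Eu donor, mixed with His-hSOS1 and anti-6His-XL665 acceptor. Buffer ~5 mM HEPES pH 7.4, ~150 mM NaCl, ~1 mM DTT, 0.05% BSA, 0.0025% Igepal; incubated about 10 min or longer. HTRF 665/620 ratio, compounds in duplicate up to 10 μM, IC50 derived.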

KRAS G12D = molecular target: T2, KRAS G12D (Homo sapiens, UniProt P01116, G12D); assay: HTRF KRAS-SOS1 interaction assay, KRAS G12D; conditions: binned ≤2 μM / >2 μM, read-out: Inhibition of KRAS G12D (IC50)
T2 construct: made in house; host or cells: E. coli, e.g. BL21 (DE3)
T2 sequence (P01116 1-188 isoform P01116-2 G12D): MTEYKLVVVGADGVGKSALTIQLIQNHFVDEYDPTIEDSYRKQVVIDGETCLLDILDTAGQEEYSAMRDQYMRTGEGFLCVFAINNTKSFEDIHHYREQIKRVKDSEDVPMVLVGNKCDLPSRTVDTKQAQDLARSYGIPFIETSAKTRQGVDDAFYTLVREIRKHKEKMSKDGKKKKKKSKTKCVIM
Procedure, shortened: as §1

KRAS G12V = molecular target: T3, KRAS G12V (Homo sapiens, UniProt P01116, G12V); assay: HTRF KRAS-SOS1 interaction assay, KRAS G12V; conditions: binned ≤2 μM / >2 μM, read-out: Inhibition of KRAS G12V (IC50)
T3 construct: made in house; host or cells: E. coli, e.g. BL21 (DE3)
T3 sequence (P01116 1-188 isoform P01116-2 G12V): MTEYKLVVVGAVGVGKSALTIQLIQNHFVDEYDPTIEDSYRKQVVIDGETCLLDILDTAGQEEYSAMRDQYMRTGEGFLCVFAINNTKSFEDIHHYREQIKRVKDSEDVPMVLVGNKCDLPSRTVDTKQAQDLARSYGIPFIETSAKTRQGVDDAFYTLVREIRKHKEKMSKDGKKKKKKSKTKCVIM
Procedure, shortened: as §1

KRAS WT = molecular target: T4, KRAS WT (Homo sapiens, UniProt P01116); assay: HTRF KRAS-SOS1 interaction assay, wildtype KRAS; conditions: binned ≤2 μM / >2 μM, read-out: Inhibition of KRAS WT (IC50)
T4 construct: made in house; host or cells: E. coli, e.g. BL21 (DE3)
T4 sequence (P01116 1-188 isoform P01116-2): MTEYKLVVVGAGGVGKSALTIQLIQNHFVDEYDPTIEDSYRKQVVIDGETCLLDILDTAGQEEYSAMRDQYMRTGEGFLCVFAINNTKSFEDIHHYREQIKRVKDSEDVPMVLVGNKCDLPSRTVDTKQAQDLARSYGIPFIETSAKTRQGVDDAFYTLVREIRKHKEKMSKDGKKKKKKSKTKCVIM
Procedure, shortened: as §1

T1 sequence (P01116 1-188 isoform P01116-2 G12S): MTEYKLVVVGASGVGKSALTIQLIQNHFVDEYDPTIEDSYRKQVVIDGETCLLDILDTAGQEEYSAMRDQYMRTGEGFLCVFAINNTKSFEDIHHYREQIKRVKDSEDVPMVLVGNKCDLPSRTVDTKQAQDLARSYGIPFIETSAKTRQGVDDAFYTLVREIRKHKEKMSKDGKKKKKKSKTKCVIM

Structure (SMILES)	IC50 (KRAS G12S)	IC50 (KRAS G12D)	IC50 (KRAS G12V)	IC50 (KRAS WT)
C[C@H](c1cccnc1N)N1CCOc2c(Cl)c(-c3ccc(F)c4sc(N)c(C#N)c34)c(F)c3nc(OC[C@@]45CCCN4C[C@@]4(CC4(F)F)C5)nc1c23 [Compound 740, 2-amino-4-((R)-4-((R)-1-(2-aminopyridin-3-yl)ethyl)-8-chloro-2-(((1S,7a'S)-2,2-difluorodihydro-1′H,3′H-spiro[cyclopropane-1,2′-pyrrolizin]-7a′ (5′H)-yl)methoxy)-10-fluoro-5,6-dihydro-4H-[1,4]oxazepino[5,6,7-de]quinazolin-9-yl)-7-fluorobenzo[b]thiophene-3-carbonitrile]	≤ 2 µM	≤ 2 µM	≤ 2 µM	≤ 2 µM
N#Cc1c(N)sc2c(F)ccc(-c3c(Cl)c4c5c(nc(OC[C@@]67CCCN6C[C@H](F)C7)nc5c3F)N(C(/C=C/C(F)(F)F)c3cccnc3N)CCO4)c12 (mixture of isomers) [Compound 828, 2-amino-4-(4-((E)-1-(2-aminopyridin-3-yl)-4,4,4-trifluorobut-2-en-1-yl)-8-chloro-10-fluoro-2-(((2R,7aS)-2-fluorotetrahydro-1H-pyrrolizin-7a(5H)-yl)methoxy)-5,6-dihydro-4H-[1,4]oxazepino[5,6,7-de]quinazolin-9-yl)-7-fluorobenzo[b]thiophene-3-carbonitrile]	≤ 2 µM	≤ 2 µM	≤ 2 µM	≤ 2 µM
N#Cc1c(N)sc2c(F)ccc(-c3c(C(F)(F)F)c4c5c(nc(OC[C@@]67CCCN6C[C@@]6(CC6(F)F)C7)nc5c3F)N([C@H](CC3CCOCC3)c3cccnc3N)CCO4)c12 [Compound 855, 2-amino-4-(4-((R)-1-(2-aminopyridin-3-yl)-2-(tetrahydro-2H-pyran-4-yl)ethyl)-2-(((1S,7a′S)-2,2-difluorodihydro-1′H,3′H-spiro[cyclopropane-1,2′-pyrrolizin]-7a′(5′H)-yl)methoxy)-10-fluoro-8-(trifluoromethyl)-5,6-dihydro-4H-[1,4]oxazepino[5,6,7-de]quinazolin-9-yl)-7-fluorobenzo[b]thiophene-3-carbonitrile]	≤ 2 µM	≤ 2 µM	≤ 2 µM	≤ 2 µM
C[C@H](c1cc(Cl)cnc1N)N1CCOc2c(C(F)(F)F)c(-c3ccc(F)c4sc(N)c(C#N)c34)c(F)c3nc(OCC4(CN5CCC(=CF)CC5)CC4)nc1c23 [Compound 819, 2-amino-4-(4-((R)-1-(2-amino-5-chloropyridin-3-yl)ethyl)-10-fluoro-2-((1-((4-(fluoromethylene)piperidin-1-yl)methyl)cyclopropyl)methoxy)-8-(trifluoromethyl)-5,6-dihydro-4H-[1,4]oxazepino[5,6,7-de]quinazolin-9-yl)-7-fluorobenzo[b]thiophene-3-carbonitrile]	≤ 2 µM	≤ 2 µM	≤ 2 µM	≤ 2 µM
N#Cc1c(N)sc2c(F)ccc(-c3c(C(F)(F)F)c4c5c(nc(OC[C@@]67CCCN6C[C@@]6(CC6(F)F)C7)nc5c3F)N([C@H](CCC3CCOCC3)c3cccnc3N)CCO4)c12 [Compound 650, 2-amino-4-(4-((R)-1-(2-aminopyridin-3-yl)-3-(tetrahydro-2H-pyran-4-yl)propyl)-2-(((1S,7a′S)-2,2-difluorodihydro-1′H,3′H-spiro[cyclopropane-1,2′-pyrrolizin]-7a′(5′H)-yl)methoxy)-10-fluoro-8-(trifluoromethyl)-5,6-dihydro-4H-[1,4]oxazepino[5,6,7-de]quinazolin-9-yl)-7-fluorobenzo[b]thiophene-3-carbonitrile]	≤ 2 µM	≤ 2 µM	≤ 2 µM	≤ 2 µM
C[C@H](c1cccnc1N)N1CCOc2c(C(F)(F)F)c(-c3ccc(F)c4sc(N)c(C#N)c34)c(F)c3nc(OCC4(CN5CCC6(CC5)CC6(F)F)CC4)nc1c23 (atropisomer, axis not shown) [Compound 613, 2-amino-4-((S)-4-((R)-1-(2-aminopyridin-3-yl)ethyl)-2-((1-((1,1-difluoro-6-azaspiro[2.5]octan-6-yl)methyl)cyclopropyl)methoxy)-10-fluoro-8-(trifluoromethyl)-5,6-dihydro-4H-[1,4]oxazepino[5,6,7-de]quinazolin-9-yl)-7-fluorobenzo[b]thiophene-3-carbonitrile]	≤ 2 µM	≤ 2 µM	≤ 2 µM	≤ 2 µM
C[C@H](c1nccnc1N)N1CCOc2c(C(F)(F)F)c(-c3ccc(F)c4sc(N)c(C#N)c34)c(F)c3nc(OC[C@@]45CCCN4C[C@H](F)C5)nc1c23 (single isomer, unassigned) [Compound 797]	> 2 µM	> 2 µM	> 2 µM	> 2 µM
C=C(F)[C@@H](c1cccnc1N)N1CCOc2c(Cl)c(-c3ccc(F)c4sc(N)c(C#N)c34)c(F)c3nc(OC[C@@]45CCCN4C[C@H](F)C5)nc1c23 [Compound 601, 2-amino-4-(4-((R)-1-(2-aminopyridin-3-yl)-2-fluoroallyl)-8-chloro-10-fluoro-2-(((2R,7aS)-2-fluorotetrahydro-1H-pyrrolizin-7a(5H)-yl)methoxy)-5,6-dihydro-4H-[1,4]oxazepino[5,6,7-de]quinazolin-9-yl)-7-fluorobenzo[b]thiophene-3-carbonitrile]	≤ 2 µM	≤ 2 µM	≤ 2 µM	≤ 2 µM
CC[S+]([O-])[C@@H]1CN2CCC[C@@]2(COc2nc3c4c(c(Cl)c(-c5ccc(F)c6sc(N)c(C#N)c56)c(F)c4n2)OCCN3[C@H](C)c2cccnc2N)C1 (mixture of isomers) [Compound 780, 2-amino-4-(4-((R)-1-(2-aminopyridin-3-yl)ethyl)-8-chloro-2-(((2S,7aS)-2-(ethylsulfinyl)tetrahydro-1H-pyrrolizin-7a(5H)-yl)methoxy)-10-fluoro-5,6-dihydro-4H-[1,4]oxazepino[5,6,7-de]quinazolin-9-yl)-7-fluorobenzo[b]thiophene-3-carbonitrile]	≤ 2 µM	≤ 2 µM	≤ 2 µM	≤ 2 µM
N#Cc1c(N)sc2c(F)ccc(-c3c(C(F)(F)F)c4c5c(nc(OC[C@@]67CCCN6C[C@H](F)C7)nc5c3F)N([C@H](CC3CCC3)c3cccnc3N)CCO4)c12 (single isomer, unassigned) [Compound 902]	> 2 µM	> 2 µM	> 2 µM	> 2 µM
C[C@H](c1cccnc1Cl)N1CCOc2c(C(F)(F)F)c(-c3ccc(F)c4sc(N)c(C#N)c34)c(F)c3nc(OC[C@@]45CCCN4C[C@H](F)C5)nc1c23 [Compound 730, 2-amino-4-(4-((R)-1-(2-chloropyridin-3-yl)ethyl)-10-fluoro-2-(((2R,7aS)-2-fluorotetrahydro-1H-pyrrolizin-7a(5H)-yl)methoxy)-8-(trifluoromethyl)-5,6-dihydro-4H-[1,4]oxazepino[5,6,7-de]quinazolin-9-yl)-7-fluorobenzo[b]thiophene-3-carbonitrile]	≤ 2 µM	≤ 2 µM	≤ 2 µM	≤ 2 µM
C[C@H](c1cccnc1N)N1CCOc2c(Br)c(-c3ccc(F)c4sc(N)c(C#N)c34)c(F)c3nc(OC[C@@]45CCCN4C[C@H](F)C5)nc1c23 (single isomer, unassigned) [Compound 858]	≤ 2 µM	≤ 2 µM	≤ 2 µM	≤ 2 µM
N#Cc1c(N)sc2c(F)ccc(-c3c(C(F)(F)F)c4c5c(nc(OC[C@@]67CCCN6C[C@@]6(CC6(F)F)C7)nc5c3F)N([C@@H](c3cccnc3N)C(F)F)CCO4)c12 (single isomer, unassigned) [Compound 843]	≤ 2 µM	≤ 2 µM	≤ 2 µM	≤ 2 µM
N#Cc1c(N)sc2c(F)ccc(-c3c(C(F)(F)F)c4c5c(nc(OC[C@@]67CCCN6C[C@@]6(CC6(F)F)C7)nc5c3F)N([C@H](CCC(F)(F)F)c3cccnc3N)CCO4)c12 [Compound 883, 2-amino-4-(4-((R)-1-(2-aminopyridin-3-yl)-4,4,4-trifluorobutyl)-2-(((1S,7a′S)-2,2-difluorodihydro-1′H,3′H-spiro[cyclopropane-1,2′-pyrrolizin]-7a′(5′H)-yl)methoxy)-10-fluoro-8-(trifluoromethyl)-5,6-dihydro-4H-[1,4]oxazepino[5,6,7-de]quinazolin-9-yl)-7-fluorobenzo[b]thiophene-3-carbonitrile]	≤ 2 µM	≤ 2 µM	≤ 2 µM	≤ 2 µM
COCC[C@H](c1cccnc1N)N1CCOc2c(C(F)(F)F)c(-c3ccc(F)c4sc(N)c(C#N)c34)c(F)c3nc(OC[C@@]45CCCN4C[C@H](F)C5)nc1c23 [Compound 782, 2-amino-4-(4-((R)-1-(2-aminopyridin-3-yl)-3-methoxypropyl)-10-fluoro-2-(((2R,7aS)-2-fluorotetrahydro-1H-pyrrolizin-7a(5H)-yl)methoxy)-8-(trifluoromethyl)-5,6-dihydro-4H-[1,4]oxazepino[5,6,7-de]quinazolin-9-yl)-7-fluorobenzo[b]thiophene-3-carbonitrile]	≤ 2 µM	≤ 2 µM	≤ 2 µM	≤ 2 µM
N#Cc1c(N)sc2c(F)ccc(-c3c(C(F)(F)F)c4c5c(nc(OC[C@@]67CCCN6C[C@H](F)C7)nc5c3F)N([C@H](CC3CCOC3)c3cccnc3N)CCO4)c12 (single isomer, unassigned) [Compound 692]	≤ 2 µM	≤ 2 µM	≤ 2 µM	≤ 2 µM
